This is an account of results in ChEMBL document CHEMBL3991601, “The target landscape of clinical kinase drugs” (Science, 2017).

The target in test [1] is Tyrosine-protein kinase ABL2 (Homo sapiens, UniProt P42684).
Test [2] has as its target T1, Ephrin type-B receptor 6 (Homo sapiens, UniProt O15197).
T1 sequence (O15197 whole entry): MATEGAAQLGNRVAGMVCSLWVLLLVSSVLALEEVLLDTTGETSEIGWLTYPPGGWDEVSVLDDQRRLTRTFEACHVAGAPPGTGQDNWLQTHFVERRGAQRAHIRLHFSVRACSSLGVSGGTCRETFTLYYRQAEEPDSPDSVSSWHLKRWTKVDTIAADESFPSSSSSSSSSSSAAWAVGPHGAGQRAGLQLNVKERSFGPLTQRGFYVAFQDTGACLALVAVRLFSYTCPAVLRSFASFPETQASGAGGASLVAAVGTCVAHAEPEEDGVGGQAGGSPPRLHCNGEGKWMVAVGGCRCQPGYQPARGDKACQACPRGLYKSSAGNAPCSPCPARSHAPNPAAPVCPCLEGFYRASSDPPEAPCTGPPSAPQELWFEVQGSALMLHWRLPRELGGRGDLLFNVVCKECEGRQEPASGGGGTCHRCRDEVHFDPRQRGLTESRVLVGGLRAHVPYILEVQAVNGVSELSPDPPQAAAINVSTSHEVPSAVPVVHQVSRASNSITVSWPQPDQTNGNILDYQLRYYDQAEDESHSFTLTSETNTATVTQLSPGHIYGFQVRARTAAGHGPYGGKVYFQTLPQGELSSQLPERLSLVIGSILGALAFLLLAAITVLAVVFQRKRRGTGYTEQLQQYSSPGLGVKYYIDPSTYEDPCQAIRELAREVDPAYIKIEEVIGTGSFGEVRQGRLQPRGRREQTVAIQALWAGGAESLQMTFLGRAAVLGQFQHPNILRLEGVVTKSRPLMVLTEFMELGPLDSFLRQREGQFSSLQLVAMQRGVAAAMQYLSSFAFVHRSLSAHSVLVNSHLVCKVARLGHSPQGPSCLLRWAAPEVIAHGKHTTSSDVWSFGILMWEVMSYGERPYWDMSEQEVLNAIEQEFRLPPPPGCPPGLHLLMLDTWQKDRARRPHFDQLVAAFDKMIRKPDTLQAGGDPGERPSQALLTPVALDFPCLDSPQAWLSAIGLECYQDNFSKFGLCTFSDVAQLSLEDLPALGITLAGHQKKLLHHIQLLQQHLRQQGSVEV

In test [3] the target is Ribosomal protein S6 kinase alpha-6 (Homo sapiens, UniProt Q9UK32).
Ribosomal protein S6 kinase alpha-6, sequence (Q9UK32 whole entry): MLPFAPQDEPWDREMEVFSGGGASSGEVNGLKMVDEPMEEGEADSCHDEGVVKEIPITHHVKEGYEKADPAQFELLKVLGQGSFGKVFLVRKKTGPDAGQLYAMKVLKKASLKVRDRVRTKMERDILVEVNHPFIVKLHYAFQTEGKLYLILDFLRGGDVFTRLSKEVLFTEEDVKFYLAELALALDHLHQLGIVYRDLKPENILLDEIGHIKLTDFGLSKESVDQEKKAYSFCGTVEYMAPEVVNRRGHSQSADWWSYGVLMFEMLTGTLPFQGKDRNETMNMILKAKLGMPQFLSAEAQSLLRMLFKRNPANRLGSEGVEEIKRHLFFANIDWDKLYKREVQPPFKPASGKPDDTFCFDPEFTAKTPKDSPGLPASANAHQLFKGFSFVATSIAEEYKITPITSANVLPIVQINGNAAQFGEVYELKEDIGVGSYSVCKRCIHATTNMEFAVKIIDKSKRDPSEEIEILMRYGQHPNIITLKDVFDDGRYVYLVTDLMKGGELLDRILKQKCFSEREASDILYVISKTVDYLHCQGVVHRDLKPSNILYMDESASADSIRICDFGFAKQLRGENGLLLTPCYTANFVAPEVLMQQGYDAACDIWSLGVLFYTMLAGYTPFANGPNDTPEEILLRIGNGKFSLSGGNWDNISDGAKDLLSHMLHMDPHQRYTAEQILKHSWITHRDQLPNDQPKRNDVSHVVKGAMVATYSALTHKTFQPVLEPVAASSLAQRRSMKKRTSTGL
For test [4], the target named is T2, Tyrosine-protein kinase Tec (Homo sapiens, UniProt P42680).
T2 sequence (P42680 whole entry): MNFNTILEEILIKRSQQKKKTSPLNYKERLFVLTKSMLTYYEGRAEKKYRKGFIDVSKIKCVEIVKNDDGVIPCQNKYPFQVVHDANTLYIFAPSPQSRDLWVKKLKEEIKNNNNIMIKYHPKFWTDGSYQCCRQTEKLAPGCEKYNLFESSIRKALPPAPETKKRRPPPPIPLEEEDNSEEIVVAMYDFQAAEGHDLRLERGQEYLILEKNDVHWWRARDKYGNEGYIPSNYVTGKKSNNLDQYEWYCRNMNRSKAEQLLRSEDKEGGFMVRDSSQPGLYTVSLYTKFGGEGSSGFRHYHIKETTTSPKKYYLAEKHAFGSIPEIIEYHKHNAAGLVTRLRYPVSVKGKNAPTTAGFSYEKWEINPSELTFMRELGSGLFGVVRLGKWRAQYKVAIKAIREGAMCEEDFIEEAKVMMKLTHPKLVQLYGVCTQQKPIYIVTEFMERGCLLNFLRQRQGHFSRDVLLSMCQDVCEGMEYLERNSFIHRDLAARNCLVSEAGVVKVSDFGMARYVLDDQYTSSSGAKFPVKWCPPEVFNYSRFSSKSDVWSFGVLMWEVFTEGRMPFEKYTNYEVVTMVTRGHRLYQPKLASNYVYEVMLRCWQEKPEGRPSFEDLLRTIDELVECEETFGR

The target of test [5] is Activin receptor type-2B (Homo sapiens, UniProt Q13705).
Activin receptor type-2B, sequence (Q13705 whole entry): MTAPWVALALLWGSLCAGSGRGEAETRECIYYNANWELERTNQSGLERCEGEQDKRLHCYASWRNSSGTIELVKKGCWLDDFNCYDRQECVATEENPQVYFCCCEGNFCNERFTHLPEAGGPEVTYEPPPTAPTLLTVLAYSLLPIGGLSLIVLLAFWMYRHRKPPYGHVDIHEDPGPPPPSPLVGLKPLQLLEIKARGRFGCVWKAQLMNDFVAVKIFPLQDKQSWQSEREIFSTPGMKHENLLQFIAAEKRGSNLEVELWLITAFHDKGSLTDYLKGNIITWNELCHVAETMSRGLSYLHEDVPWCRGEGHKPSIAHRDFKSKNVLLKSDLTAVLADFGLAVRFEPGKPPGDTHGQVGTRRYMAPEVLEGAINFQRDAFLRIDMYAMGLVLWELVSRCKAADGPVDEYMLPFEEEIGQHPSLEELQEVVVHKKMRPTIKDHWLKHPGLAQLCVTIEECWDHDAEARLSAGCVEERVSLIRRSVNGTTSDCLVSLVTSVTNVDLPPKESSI
Test [6] deals with T3, Uncharacterized protein FLJ45252 (Homo sapiens, UniProt Q6ZSR9).
T3 sequence (Q6ZSR9 whole entry): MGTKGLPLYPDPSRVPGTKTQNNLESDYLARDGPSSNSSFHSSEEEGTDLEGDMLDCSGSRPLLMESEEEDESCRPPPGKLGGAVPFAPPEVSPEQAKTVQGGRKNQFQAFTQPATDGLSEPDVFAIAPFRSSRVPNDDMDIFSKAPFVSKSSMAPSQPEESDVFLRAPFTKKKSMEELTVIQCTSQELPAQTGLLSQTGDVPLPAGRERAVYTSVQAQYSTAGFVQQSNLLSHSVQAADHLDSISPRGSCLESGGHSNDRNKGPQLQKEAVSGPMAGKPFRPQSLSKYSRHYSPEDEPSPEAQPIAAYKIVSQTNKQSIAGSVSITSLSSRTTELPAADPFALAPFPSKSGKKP
To be noted: read-out: Kd apparent; k-562, colo 205, sk-n-be(2) and mv-4-11.

Test [7] concerns the target T4, Phenylalanine--tRNA ligase beta subunit (Homo sapiens, UniProt Q9NSD9).
T4 sequence (Q9NSD9 whole entry): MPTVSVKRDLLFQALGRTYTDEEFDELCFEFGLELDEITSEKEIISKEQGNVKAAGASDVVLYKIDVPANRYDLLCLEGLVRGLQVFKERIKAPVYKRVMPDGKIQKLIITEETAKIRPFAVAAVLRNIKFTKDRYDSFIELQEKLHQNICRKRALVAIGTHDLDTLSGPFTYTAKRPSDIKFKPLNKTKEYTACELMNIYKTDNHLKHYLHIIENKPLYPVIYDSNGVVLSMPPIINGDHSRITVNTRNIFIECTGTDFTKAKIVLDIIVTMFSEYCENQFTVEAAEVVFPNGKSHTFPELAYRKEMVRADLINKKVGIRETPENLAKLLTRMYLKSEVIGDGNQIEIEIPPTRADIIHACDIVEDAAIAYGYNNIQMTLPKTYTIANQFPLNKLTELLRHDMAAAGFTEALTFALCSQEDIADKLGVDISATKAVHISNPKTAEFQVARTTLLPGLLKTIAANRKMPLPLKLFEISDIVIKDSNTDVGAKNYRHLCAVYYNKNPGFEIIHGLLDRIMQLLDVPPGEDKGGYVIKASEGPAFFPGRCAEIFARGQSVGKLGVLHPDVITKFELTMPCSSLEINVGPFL

Test [8] addresses GTP-binding nuclear protein Ran (Homo sapiens, UniProt P62826).

SMILES strings stand for the structures. Activity calls are given as the source filed them. Rule as the data show it, for most assays here: actives have a measured Kd and inactives only a lower limit.
Also: in the data inactive means no Kd found up to 30 µM.

Tyrosine-protein kinase ABL2, sequence (P42684 whole entry): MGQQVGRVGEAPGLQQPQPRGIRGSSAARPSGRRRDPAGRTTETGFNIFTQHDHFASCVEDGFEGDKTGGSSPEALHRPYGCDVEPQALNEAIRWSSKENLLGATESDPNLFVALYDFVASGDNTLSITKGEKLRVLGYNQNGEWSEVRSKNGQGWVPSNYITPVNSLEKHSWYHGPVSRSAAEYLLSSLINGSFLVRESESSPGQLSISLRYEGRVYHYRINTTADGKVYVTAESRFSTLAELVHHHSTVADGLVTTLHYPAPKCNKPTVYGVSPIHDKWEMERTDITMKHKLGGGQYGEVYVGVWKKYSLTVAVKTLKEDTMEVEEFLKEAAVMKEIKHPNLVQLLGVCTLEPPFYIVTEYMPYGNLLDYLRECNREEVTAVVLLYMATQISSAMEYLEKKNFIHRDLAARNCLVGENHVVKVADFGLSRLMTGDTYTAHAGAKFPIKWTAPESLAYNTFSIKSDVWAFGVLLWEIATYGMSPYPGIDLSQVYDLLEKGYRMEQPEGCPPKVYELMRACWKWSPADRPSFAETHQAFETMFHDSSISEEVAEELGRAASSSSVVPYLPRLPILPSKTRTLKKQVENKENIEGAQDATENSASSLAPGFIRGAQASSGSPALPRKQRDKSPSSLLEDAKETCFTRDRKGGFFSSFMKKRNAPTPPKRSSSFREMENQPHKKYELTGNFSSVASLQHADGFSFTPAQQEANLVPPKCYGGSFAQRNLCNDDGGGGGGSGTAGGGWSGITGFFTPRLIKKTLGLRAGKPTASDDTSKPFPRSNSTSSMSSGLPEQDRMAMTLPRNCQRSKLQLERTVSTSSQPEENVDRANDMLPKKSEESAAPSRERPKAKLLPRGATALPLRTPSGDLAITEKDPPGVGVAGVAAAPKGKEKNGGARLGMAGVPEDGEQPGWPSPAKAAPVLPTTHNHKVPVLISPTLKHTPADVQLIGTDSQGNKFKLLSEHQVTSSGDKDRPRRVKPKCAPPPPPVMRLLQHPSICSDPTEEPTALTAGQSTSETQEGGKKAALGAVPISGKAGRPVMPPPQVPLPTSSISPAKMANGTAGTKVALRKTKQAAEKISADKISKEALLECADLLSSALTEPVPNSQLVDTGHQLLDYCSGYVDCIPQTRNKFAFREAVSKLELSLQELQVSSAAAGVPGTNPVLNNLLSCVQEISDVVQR

For `O[C@H]1CC[C@H](Nc2ncc3nc(Nc4c(F)cc(F)cc4F)n([C@H]4CCOC4)c3n2)CC1` [TANZISERTIB], the Kd in test [1], in test [2], in test [3], in test [4], in test [5] and in test [6] was > 30 µM (inactive) throughout. The Kd in test [7] and in test [8] was > 30 µM (inactive) each time.

With `COc1cccc2cc(-c3nc([C@H]4CC[C@H](C(=O)O)CC4)n4ncnc(N)c34)[nH]c12` [OSI-027], the Kd in test [1], in test [2], in test [3], in test [4], in test [5] and in test [6] was > 30 µM (inactive) in each case. Besides, the Kd in test [7] and in test [8] was > 30 µM (inactive) each time.

Take `Cn1c(=O)n(-c2ccc(C(C)(C)C#N)cc2)c2c3cc(-c4cnc5ccccc5c4)ccc3ncc21` [DACTOLISIB]: the Kd in test [1], in test [2], in test [3], in test [4], in test [5] and in test [6] was > 30 µM (inactive) in each case. The Kd in test [7] and in test [8] was > 30 µM (inactive) throughout.

Take `O=C(O)c1ccc2c(c1)nc(Nc1cccc(Cl)c1)c1ccncc12` [SILMITASERTIB]: the Kd in test [1] is > 30 µM (inactive); in test [2], > 30 µM (inactive); in test [3] it was 3.42 µM (active); in test [4] it was > 30 µM (inactive); in test [5], > 30 µM (inactive); in test [6], > 30 µM (inactive). The Kd in test [7] and in test [8] was > 30 µM (inactive) throughout.

For the compound `c1cc(OCCN2CCCCC2)cc(-c2n[nH]c3ccc(-c4nc[nH]n4)cc23)c1` [CC-401], the Kd is > 30 µM (inactive) in test [1]; > 30 µM (inactive) in test [2]; > 30 µM (inactive) in test [3]; > 30 µM (inactive) in test [4]; > 30 µM (inactive) in test [5]; 2.53 µM (active) in test [6]. The Kd in test [7] and in test [8] was > 30 µM (inactive) in each case.

Regarding `COc1cc2ncnc(Nc3ccc(O)cc3)c2cc1OC` [WHI-P131], the Kd was > 30 µM (inactive) in test [1]; > 30 µM (inactive) in test [2]; 5.9 µM (active) in test [3]; > 30 µM (inactive) in test [4]; > 30 µM (inactive) in test [5]; 1.54 µM (active) in test [6]. In addition, the Kd in test [7] and in test [8] was > 30 µM (inactive) throughout.

Take `O=C(Nc1ccc(OC(F)(F)F)cc1)c1sccc1NCc1ccnc2ccccc12` [OSI-930]: the Kd in test [1], in test [2], in test [3], in test [4], in test [5] and in test [6] was > 30 µM (inactive) each time. For the same compound, the Kd in test [7] and in test [8] was > 30 µM (inactive) each time.

As for `CNC(=O)c1ccc(Nc2ncc(C(F)(F)F)c(NCc3nccnc3N(C)S(C)(=O)=O)n2)cc1` [DEFACTINIB], the Kd in test [1], in test [2], in test [3], in test [4], in test [5] and in test [6] was > 30 µM (inactive) each time. Moreover, the Kd in test [7] and in test [8] was > 30 µM (inactive) in each case.

`CC[C@@](C)(Nc1ccnc(-c2c[nH]c3ncccc23)n1)C(=O)NCC(F)(F)F` [DECERNOTINIB]: the Kd in test [1] is 7.07 µM (active); in test [2] it was > 30 µM (inactive); in test [3], > 30 µM (inactive); in test [4], > 30 µM (inactive); in test [5] it was > 30 µM (inactive); in test [6] it was 2.64 µM (active). The Kd in test [7] and in test [8] was > 30 µM (inactive) in each case.

As to `O=S(=O)(c1cccc2c(O)nccc12)N1CCCNCC1` [HYDROXYFASUDIL], the Kd in test [1], in test [2], in test [3], in test [4], in test [5] and in test [6] was > 30 µM (inactive) each time. Further, the Kd in test [7] and in test [8] was > 30 µM (inactive) in each case.

In the case of `CN(c1ncccc1CNc1nc(Nc2ccc3c(c2)CC(=O)N3)ncc1C(F)(F)F)S(C)(=O)=O` [PF-00562271], the Kd in test [1], in test [2], in test [3], in test [4], in test [5] and in test [6] was > 30 µM (inactive) throughout. For the same compound, the Kd in test [7] and in test [8] was > 30 µM (inactive) throughout.

As for `CCN1CCN(Cc2ccc(Nc3ncc(F)c(-c4cc(F)c5nc(C)n(C(C)C)c5c4)n3)nc2)CC1` [ABEMACICLIB], the Kd in test [1] was > 30 µM (inactive); in test [2], > 30 µM (inactive); in test [3], > 30 µM (inactive); in test [4], > 30 µM (inactive); in test [5] it was > 30 µM (inactive); in test [6] it was 0.088 µM (active). Further, the Kd in test [7] and in test [8] was > 30 µM (inactive) each time.
